Source: paper PMC4619319, “A potent anti-inflammatory peptide from the salivary glands of horsefly” (Parasites & Vectors, 2015)

Legend:
nitrite production = experiment: LPS-stimulated nitrite (NO) production in peritoneal macrophages; format: cell-based, mouse; conditions: 100 ng/mL LPS, 24 h
Method: Cells were incubated with peptides (0, 5, 10, and 20 μg/mL) in the presence or absence of LPS (100 ng/mL, from Escherichia coli 0111:B4, Sigma-Aldrich, USA). After 6-h incubation, cells in one plate were washed twice with ice-cold PBS and lysed by Trizol reagent (Life Tech, USA) for total RNA extraction. PrimeScript® Reverse Transcriptase Kit (Takara, Japan) was used to synthesize cDNA for qPCR to examine the transcription levels of inducible nitric oxide synthase (iNOS), which is necessary for NO production. After 24-h incubation, culture medium of each wells of another plate was harvested for nitrite detection, which indirectly reflected the NO production. Nitrite accumulation levels were determined by NO detection kit (Beyotime, China) following the kit instruction.

IL-1β production = experiment: LPS-stimulated IL-1β production in peritoneal macrophages (ELISA); format: cell-based, mouse; conditions: 20 μg/mL peptide, 100 ng/mL LPS, 6 h
Method: (§1) Cells were incubated with peptides (0, 5, 10, and 20 μg/mL) with or without 100 ng/mL LPS (from E. coli 0111:B4, Sigma-Aldrich, USA) for 6 h. After treatment, culture medium was collected for TNF-α, IL-1β and IL-6 quantification using enzyme-linked immunosorbent assay (ELISA) kits (Dakewei, China). Cells were washed with ice-cold PBS and lysed by Trizol reagent (Life Tech, USA). Total RNA was extracted for cDNA synthesis to quantify TNF-α, IL-1β and IL-6 transcription levels by qPCR as described in qPCR section.

P-ERK1 = experiment: Western blot, LPS-induced P-ERK1 in peritoneal macrophages; format: cell-based, mouse; conditions: 20 μg/mL peptide, 100 ng/mL LPS, 30 min, band density ratio to β-actin
Method: (§2) Cells were treated with different concentrations of cecropin-TY1 (0, 5, 10, and 20 μg/mL) in the presence or absence of 100 ng/mL LPS (from E. coli 0111:B4, Sigma-Aldrich, USA). After 30-min incubation, cells were washed twice with ice-cold PBS and lysed with RIPA lysis buffer (Beyotime, China) on ice for 30 min according to our previous method. Protein concentration was quantified by BCA Protein Assay Kit (Thermo, Germany). About 40 μg protein was separated on a 10 % SDS-PAGE gel and transferred to a polyvinylidene difluoride membrane. The membrane was blocked by incubating with 5 % BSA (BD, USA) dissolved in Tris-buffered solution Tween-20 (TBST, 2.42 g/L Trisbase, 8 g/L NaCl, 0.1 % Tween 20, pH 7.6) for 2 h at room temperature. The membrane was then incubated with primary antibodies against ERK, phospho-ERK, p38, phospho-p38, JNK, phospho-JNK, phospho-IκBα, NF-κB p65 and phospho-NF-κB p65 (1:2000, Cell Signaling Technology, USA) and GAPDH/β-actin (1:5000, Santa Cruz Biotechnology, USA) overnight at 4 °C, respectively. After incubation, the immunoblot was washed three times with TBST for 5 min each time, and incubated with secondary antibody (1:5000, Cell Signaling Technology, USA) at room temperature for 1 h. Signals were measured by enhanced chemiluminescence kit in a dark room after washing three times with TBST for 10 min each time (TIANGEN, China).

TNF-α production = experiment: LPS-stimulated TNF-α production in peritoneal macrophages (ELISA); format: cell-based, mouse; conditions: 20 μg/mL peptide, 100 ng/mL LPS, 6 h
Method: as §1

[1] = Dissociation of FITC-conjugated LPS aggregates (fluorescence); format: binding; conditions: FITC-LPS 1 μg/mL, 10 mM phosphate buffer pH 6.0, ex 480 nm / em 515 nm
Method: Fluorescein isothiocyanate (FITC)-conjugated LPS (1 μg/mL, Sigma-Aldrich, USA) was excited at 480 nm and monitored the changes in the emission of FITC-LPS at 515 nm in the incubation of different concentrations of peptides (0, 12.5, 25, 50, 100 μg/mL). Peptides were dissolved in 10 mM phosphate buffer at pH 6.0. The interactions between peptides and LPS were further assessed by a quantitative Chromogenic End-point Tachypleus amebocyte lysate (TAL) assay kit (Xiamen Houshiji, China) following the kit instruction. Briefly, different concentrations of peptides (0, 12.5, 25, 50, 100 μg/mL) were incubated with LPS (1 μg/mL, Sigma-Aldrich, USA) at 37 °C for 30 min. After incubation, 100 μL TAL solution was added to 100 μL LPS-peptide mixtures in a pyrogen-free tube and incubated at 37 °C for 10 min. Then, LPS-peptide mixtures were added with pre-warmed substrate solution for additional 6-min incubation at 37 °C. Lastly, the absorbance at 545 nm was measured on a microplate reader (Epoch Etock, BioTek, USA). The percentages of LPS-neutralizing activity were calculated.

P-JNK2 = experiment: Western blot, LPS-induced P-JNK2 in peritoneal macrophages; format: cell-based, mouse; conditions: 20 μg/mL peptide, 100 ng/mL LPS, 30 min, band density ratio to β-actin
Method: as §2

GWLKKIGKKIERVGQNVRNAAISTLPIAQGAAGVAGALN-NH2 [cecropin-TY1, cecropin antimicrobial peptide from salivary glands of horsefly Tabanus yao, 39 residues, C-terminally amidated, synthesized]
attenuation of LPS-induced nitrite production (nitrite production; 5 μg/mL peptide): about 40.0% | attenuation of LPS-induced nitrite production (nitrite production; 10 μg/mL peptide): ~63.7% | attenuation of LPS-induced nitrite production (nitrite production; 20 μg/mL peptide): ~75.0% | reduction of LPS-induced IL-1β production (IL-1β production): 63.4% | inhibition of LPS-induced P-ERK1 expression (P-ERK1): 75.5% | reduction of LPS-induced TNF-α production (TNF-α production): 72.1% | increase of FITC-LPS fluorescence ([1]; 12.5 μg/mL peptide): 33.4% | increase of FITC-LPS fluorescence ([1]; 25 μg/mL peptide): 46.7% | increase of FITC-LPS fluorescence ([1]; 50 μg/mL peptide): 63.3% | increase of FITC-LPS fluorescence ([1]; 100 μg/mL peptide): 71.6% | inhibition of LPS-induced P-JNK2 expression (P-JNK2): 66.1%
